Data taken from ChEMBL document CHEMBL5537174, “Discovery of Potent SOS1 PROTACs with Effective Antitumor Activities against NCI-H358 Tumor Cells In Vitro/In Vivo” (J Med Chem, 2024).
The source made the active and inactive calls. No cut-off for these calls is given here.

Assays:
NCI-H358 [1] = experiment: Antiproliferative activity against human NCI-H358 cells harboring G12C mutant assessed as inhibition of cell proliferation incubated for 7 days by celltiter-glo 3D assay; assay type: functional, cell-based; details: NCI-H358, 168 h
NCI-H358 [2] = experiment: Potency index, ratio of test compound IC50 to BI3406 IC50 for antiproliferative activity against human NCI-H358 cells assessed as inhibition of cell proliferation incubated for 7 days by celltiter-glo 3D assay; assay type: functional; details: time 7 day
NCI-H358 [3] = experiment: Antiproliferative activity against human NCI-H358 cells assessed as inhibition of cell proliferation incubated for 7 days by celltiter-glo 3D assay; assay type: functional, cell-based; details: NCI-H358, 168 h
[4] = target: T1, Protein cereblon/Son of sevenless homolog 1 (Homo sapiens, UniProt Q07889+Q96SW2); experiment: PROTAC activity at CRBN/SOS1 in human NCI-H358 cells assessed as induction of SOS1 degradation at > 1 uM incubated for 6 hrs by Western blotting analysis; assay type: cell-based
Target sequence in this assay (Q07889 whole entry, looked up): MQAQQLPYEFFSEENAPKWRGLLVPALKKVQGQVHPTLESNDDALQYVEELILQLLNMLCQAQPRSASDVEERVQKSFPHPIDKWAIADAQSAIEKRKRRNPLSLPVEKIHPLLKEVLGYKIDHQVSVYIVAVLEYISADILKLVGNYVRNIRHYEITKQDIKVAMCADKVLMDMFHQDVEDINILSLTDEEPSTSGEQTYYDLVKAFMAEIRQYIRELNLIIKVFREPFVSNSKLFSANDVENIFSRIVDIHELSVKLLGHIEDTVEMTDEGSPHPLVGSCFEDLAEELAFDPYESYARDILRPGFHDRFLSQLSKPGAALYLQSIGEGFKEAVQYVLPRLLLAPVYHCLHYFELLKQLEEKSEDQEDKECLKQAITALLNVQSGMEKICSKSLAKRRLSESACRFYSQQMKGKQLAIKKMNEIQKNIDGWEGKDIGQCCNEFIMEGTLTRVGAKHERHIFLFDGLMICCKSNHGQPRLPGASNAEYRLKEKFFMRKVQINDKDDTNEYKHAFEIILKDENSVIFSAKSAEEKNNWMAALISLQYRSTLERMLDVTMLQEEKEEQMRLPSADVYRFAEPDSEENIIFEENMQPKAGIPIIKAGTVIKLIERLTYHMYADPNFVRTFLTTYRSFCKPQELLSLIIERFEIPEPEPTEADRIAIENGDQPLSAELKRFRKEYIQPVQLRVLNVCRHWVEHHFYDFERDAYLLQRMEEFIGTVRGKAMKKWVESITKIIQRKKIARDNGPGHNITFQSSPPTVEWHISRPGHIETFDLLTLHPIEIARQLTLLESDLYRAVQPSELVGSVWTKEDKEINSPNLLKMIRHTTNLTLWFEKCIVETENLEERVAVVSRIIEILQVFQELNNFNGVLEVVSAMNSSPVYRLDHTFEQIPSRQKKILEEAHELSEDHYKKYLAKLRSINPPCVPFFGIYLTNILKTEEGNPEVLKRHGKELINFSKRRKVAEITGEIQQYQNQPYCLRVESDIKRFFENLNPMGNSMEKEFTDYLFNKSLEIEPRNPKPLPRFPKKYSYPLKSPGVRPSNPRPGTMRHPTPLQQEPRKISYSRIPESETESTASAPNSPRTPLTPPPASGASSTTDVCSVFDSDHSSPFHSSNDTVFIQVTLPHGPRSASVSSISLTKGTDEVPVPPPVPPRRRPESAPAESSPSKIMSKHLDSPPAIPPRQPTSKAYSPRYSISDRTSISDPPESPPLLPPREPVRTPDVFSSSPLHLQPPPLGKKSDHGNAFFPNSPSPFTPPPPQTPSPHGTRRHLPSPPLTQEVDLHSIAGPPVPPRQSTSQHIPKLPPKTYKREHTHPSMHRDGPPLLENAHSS
Target sequence in this assay (Q96SW2 whole entry, looked up): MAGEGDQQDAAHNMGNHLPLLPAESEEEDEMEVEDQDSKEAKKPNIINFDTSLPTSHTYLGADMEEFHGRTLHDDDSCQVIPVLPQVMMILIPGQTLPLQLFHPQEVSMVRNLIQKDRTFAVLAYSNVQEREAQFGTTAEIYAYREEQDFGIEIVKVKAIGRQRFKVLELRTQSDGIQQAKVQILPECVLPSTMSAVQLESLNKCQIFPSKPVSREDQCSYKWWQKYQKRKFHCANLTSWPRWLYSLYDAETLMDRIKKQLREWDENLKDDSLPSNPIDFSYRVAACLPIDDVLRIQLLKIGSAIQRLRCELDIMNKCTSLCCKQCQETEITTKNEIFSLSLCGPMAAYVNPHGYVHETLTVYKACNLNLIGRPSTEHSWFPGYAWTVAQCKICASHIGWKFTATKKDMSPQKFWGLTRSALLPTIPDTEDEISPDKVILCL

[5] = Antiproliferative activity against human GP2d cells harboring G12D mutant assessed as inhibition of cell proliferation incubated for 7 days by celltiter-glo 3D assay; assay type: functional, cell-based; details: 168 h
[6] = Cmax in BALB/c nude mouse at 10 mg/kg, ip measured upto 24 hrs by LC-MS/MS analysis; assay type: ADME, organism-based; details: in vivo
[7] = target: T1, Protein cereblon/Son of sevenless homolog 1; experiment: PROTAC activity at CRBN/SOS1 in human NCI-H358 cells assessed as induction of SOS1 degradation incubated for 6 hrs by Western blotting analysis; assay type: cell-based; details: read-out: DC50
Target sequence in this assay (Q07889 whole entry): as the sequence (Q07889 whole entry, looked up) above
Target sequence in this assay (Q96SW2 whole entry): as the sequence (Q96SW2 whole entry, looked up) above

Cytochrome P450 3A4 = Cytochrome P450 3A4 (Homo sapiens, UniProt P08684); experiment: Inhibition of CYP3A4 in human liver microsome preincubated with compound for 5 mins followed by NADPH addition and measured after 5 mins by LC-MS/MS analysis; assay type: ADME, microsomes
[8] = target: T1, Protein cereblon/Son of sevenless homolog 1; experiment: PROTAC activity at CRBN/SOS1 in human NCI-H358 cells assessed as induction of SOS1 degradation at 0.1 to 1 uM incubated for 6 hrs by Western blotting analysis; assay type: cell-based; details: dose 0.1-1 µM
Target sequence in this assay (Q07889 whole entry, looked up): as the sequence (Q07889 whole entry, looked up) above
Target sequence in this assay (Q96SW2 whole entry, looked up): as the sequence (Q96SW2 whole entry, looked up) above

[9] = target: Voltage-gated inwardly rectifying potassium channel KCNH2 (Homo sapiens, UniProt Q12809); experiment: Inhibition of hERG at -80 mV holding potential by whole cell patch clamp recording assay; assay type: toxicity
[10] = Tmax in BALB/c nude mouse at 10 mg/kg, ip measured upto 24 hrs by LC-MS/MS analysis; assay type: ADME, organism-based; details: in vivo
[11] = Half life in BALB/c nude mouse at 10 mg/kg, ip measured upto 24 hrs by LC-MS/MS analysis; assay type: ADME, organism-based; details: in vivo
NCI-H441 = experiment: Antiproliferative activity against human NCI-H441 cells harboring G12V mutant assessed as inhibition of cell proliferation incubated for 7 days by celltiter-glo 3D assay; assay type: functional, cell-based; details: NCI-H441, 168 h
DLD-1 = experiment: Antiproliferative activity against human DLD-1 cells harboring G13D mutant assessed as inhibition of cell proliferation incubated for 7 days by celltiter-glo 3D assay; assay type: functional, cell-based; details: DLD-1, 168 h
NCI-H358 [12] = experiment: Antitumor activity against human NCI-H358 cells xenografted in BALB/c nude mouse assessed as tumor growth inhibition at 30 mg/kg, ip measured twice daily for 21 days; assay type: functional; details: NCI-H358, 504 h, time 21 day, read-out: TGI
[13] = AUC (0 to infinity) in BALB/c nude mouse at 10 mg/kg, ip measured upto 24 hrs by LC-MS/MS analysis; assay type: ADME, organism-based; details: in vivo
[14] = Toxicity in BALB/c nude mouse xenografted with human NCI-H358 cells assessed as body weight loss at 30 mg/kg, ip measured every 3 days for 21 days; assay type: organism-based; details: in vivo, 504 h, time 21 day
[15] = AUC (0 to t) in BALB/c nude mouse at 10 mg/kg, ip measured upto 24 hrs by LC-MS/MS analysis; assay type: ADME, organism-based; details: in vivo

Chain of Voltage-gated inwardly rectifying potassium channel KCNH2 (Q12809 whole entry): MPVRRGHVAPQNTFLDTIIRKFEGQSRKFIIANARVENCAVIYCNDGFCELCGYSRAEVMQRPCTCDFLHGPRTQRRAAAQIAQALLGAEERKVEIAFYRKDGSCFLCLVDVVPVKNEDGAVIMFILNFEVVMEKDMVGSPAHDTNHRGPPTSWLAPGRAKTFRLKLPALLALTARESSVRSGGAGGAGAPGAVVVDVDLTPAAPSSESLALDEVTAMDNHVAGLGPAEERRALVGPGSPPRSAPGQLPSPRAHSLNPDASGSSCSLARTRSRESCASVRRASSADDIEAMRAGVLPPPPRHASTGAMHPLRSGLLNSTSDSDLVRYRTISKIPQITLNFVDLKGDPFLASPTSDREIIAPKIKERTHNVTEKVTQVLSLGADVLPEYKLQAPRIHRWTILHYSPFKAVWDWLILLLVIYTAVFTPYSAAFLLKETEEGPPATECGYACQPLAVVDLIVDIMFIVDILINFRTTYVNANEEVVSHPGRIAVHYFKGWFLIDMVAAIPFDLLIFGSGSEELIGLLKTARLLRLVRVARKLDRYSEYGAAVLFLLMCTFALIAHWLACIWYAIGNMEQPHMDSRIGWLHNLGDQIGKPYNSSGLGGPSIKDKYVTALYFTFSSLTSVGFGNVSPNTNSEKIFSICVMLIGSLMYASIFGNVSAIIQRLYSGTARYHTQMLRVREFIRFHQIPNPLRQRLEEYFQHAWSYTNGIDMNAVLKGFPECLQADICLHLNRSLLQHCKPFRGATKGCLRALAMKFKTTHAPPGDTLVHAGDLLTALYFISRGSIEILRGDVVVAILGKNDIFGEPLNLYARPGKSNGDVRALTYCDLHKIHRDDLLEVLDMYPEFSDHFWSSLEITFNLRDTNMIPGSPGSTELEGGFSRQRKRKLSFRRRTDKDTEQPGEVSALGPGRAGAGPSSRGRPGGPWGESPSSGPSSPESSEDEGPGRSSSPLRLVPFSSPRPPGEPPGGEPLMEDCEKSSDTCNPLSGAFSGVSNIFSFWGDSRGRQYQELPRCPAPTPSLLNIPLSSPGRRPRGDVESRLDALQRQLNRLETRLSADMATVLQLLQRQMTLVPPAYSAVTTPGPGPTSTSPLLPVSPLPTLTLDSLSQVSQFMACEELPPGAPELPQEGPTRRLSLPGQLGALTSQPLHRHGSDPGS
Chain of Cytochrome P450 3A4 (P08684 whole entry): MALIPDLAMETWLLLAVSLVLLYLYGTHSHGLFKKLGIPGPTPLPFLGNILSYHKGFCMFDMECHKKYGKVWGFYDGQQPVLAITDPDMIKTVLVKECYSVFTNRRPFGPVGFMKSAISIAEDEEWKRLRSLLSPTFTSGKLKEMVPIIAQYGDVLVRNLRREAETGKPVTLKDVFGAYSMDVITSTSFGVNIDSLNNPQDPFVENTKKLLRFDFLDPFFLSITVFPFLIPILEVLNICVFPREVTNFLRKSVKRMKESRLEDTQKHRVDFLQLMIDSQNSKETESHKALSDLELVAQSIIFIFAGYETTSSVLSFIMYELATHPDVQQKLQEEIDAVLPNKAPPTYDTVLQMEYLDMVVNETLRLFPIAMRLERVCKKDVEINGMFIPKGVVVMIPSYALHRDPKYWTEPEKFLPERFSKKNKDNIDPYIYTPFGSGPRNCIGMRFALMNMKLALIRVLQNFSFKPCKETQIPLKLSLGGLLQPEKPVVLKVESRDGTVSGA

- IC50 (NCI-H358 [1]): 5 nM
- IC50 (NCI-H358 [3]): 5 nM
- Activity [4]: inactive
- Cmax [6]: 1870 ng/mL
- DC50 [7]: 13 nM
- IC50 (Cytochrome P450 3A4): 320 nM
- Activity [8]: Active
- Tmax [10]: 1 h
- half-life [11]: 4.05 h
- IC50 (NCI-H441): 43 nM
- IC50 (DLD-1): 63 nM
- AUC(0-inf) [13]: 4380 ng·h/mL
- AUC(0-t) at 24 h [15]: 4370 ng·h/mL
Compound: COc1cc2nc(C)nc(N[C@H](C)c3cc(N)cc(C(F)(F)F)c3)c2cc1OCC1(CN(C)C(=O)CCCCCCNc2cccc3c2C(=O)N(C2CCC(=O)NC2=O)C3=O)CC1 (stereo partly drawn)
- Ratio IC50 (NCI-H358 [2]): 5
- IC50 [5]: 2150 nM
- IC50 [9]: > 30000 nM
- inhibition in vivo at 30 mg/kg (NCI-H358 [12]): 58.8%
- Activity [14]: Non-Toxic
